This is an account of results in patent US4822818A, “Bicycle compounds, their production and use” (Takeda Chemical Industries, Ltd., priority 1980, dated 1989).

Where a name gives a salt, the structure may show the parent alone.

Assay [1] concerns Angiotensin I. The assay can be described thus: Effect of present compounds against hypertensive activity of angiotensin I in rats, oral administration. The class given is in vivo, Male rats (Sprague-Dawley). The note with it: rat, oral 13.8 μM/kg, angiotensin I 300 ng/kg i.v., corrected by angiotensin II reaction; for Percent Inhibition against Hypertensive Reaction by Angiotensin I, After 20 min.: 20 min after administration; for Percent Inhibition against Hypertensive Reaction by Angiotensin I, After 60 min.: 60 min after administration; for Percent Inhibition against Hypertensive Reaction by Angiotensin I, After 120 min.: 120 min after administration. The procedure: Effect of Present Compounds against Hypertensive Activity of Angiotensin I
Male rats (Sprague-Dawley) weighing 250 g to 350 g which were fed under free access to drinking water and feeds were used as experimental animals. The rats were anesthetized with intraperitoneal administration of pentobarbital sodium (50 mg/kg) on the day before the test day and a polyethylene tube was inserted into each of the femoral artery for measurement of blood pressure and the femoral vein for injection of angiotensin I and II, and then the tubes were fixed.
On the test day, an average blood pressure in the control phase was recorded on an electric hemodynamometer (MP-4T model manufactured by Nippon Koden, Japan) and thereafter angiotensin I and then angiotensin II were injected through the femoral vein at a dose of 300 ng/kg and 100 ng/kg respectively, to measure the hypertensive activity. Then, 13.8 μM/kg of the compound of this invention was administered orally as an aqueous solution or an aqueous gum arabic suspension, and 20, 60 and 120 minutes after the administration, angiotensin I and II were injected repeatedly to trace hypertensive reactions. In calculating the percent inhibition to the hypertensive activity of angiotensin I, the percent inhibitory value was corrected based on the variation with time in the hypertensive reaction by angiotensin II.

Assay [2] has as its target T1, Angiotensin I Converting Enzyme (ACE) (Oryctolagus cuniculus, UniProt P12822).
T1 sequence (P12822 34-1310): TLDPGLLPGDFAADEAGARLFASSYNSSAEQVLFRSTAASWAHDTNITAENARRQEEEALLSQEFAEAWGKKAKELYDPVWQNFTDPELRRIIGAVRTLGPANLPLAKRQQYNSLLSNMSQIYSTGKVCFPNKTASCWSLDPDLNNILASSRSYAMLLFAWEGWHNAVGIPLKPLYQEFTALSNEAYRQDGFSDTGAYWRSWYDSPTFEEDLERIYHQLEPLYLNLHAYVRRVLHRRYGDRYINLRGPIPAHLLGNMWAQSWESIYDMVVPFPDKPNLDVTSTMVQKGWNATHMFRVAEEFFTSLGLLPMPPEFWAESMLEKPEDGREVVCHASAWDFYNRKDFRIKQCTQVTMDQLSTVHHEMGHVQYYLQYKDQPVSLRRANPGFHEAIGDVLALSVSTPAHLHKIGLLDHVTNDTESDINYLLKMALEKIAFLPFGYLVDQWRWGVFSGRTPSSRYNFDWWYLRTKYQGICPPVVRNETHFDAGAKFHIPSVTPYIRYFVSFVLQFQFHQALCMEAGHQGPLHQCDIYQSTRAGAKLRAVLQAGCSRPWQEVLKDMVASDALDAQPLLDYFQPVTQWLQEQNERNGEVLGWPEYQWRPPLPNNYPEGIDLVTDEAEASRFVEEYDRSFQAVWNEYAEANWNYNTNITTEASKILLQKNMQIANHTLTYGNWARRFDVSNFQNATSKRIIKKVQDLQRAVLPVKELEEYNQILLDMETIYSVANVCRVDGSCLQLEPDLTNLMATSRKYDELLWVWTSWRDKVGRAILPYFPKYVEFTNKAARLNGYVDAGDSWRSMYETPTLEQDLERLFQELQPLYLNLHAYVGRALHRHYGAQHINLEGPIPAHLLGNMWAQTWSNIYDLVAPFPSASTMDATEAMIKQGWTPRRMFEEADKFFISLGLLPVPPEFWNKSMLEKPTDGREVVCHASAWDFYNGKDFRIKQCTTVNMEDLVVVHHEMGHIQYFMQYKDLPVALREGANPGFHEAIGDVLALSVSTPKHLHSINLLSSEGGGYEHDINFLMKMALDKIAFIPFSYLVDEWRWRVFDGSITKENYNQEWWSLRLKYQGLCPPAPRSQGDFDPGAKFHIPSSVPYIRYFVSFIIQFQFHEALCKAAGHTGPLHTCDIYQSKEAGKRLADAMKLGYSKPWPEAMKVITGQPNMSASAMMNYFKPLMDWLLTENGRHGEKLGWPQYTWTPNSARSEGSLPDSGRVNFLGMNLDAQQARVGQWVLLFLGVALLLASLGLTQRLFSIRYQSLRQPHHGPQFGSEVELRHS
The assay can be described thus: Inhibition of Angiotensin I Converting Enzyme (ACE), substrate hippuryl-L-histidyl-L-leucine (HHL), hippuric acid produced. It is filed as biochemical. Particulars: pH 8.3, 37° C., one hour, read-out: Inhibitory Activity on ACE; for inhibition at 1 µM: Concentration 1 μM; for inhibition at 10 µM: Concentration 10 μM. On the procedure:
Inhibitions of Angiotensin I Converting Enzyme (ACE) by the Compounds of this Invention. The experiment was conducted in accordance with a modification of the method described by Cushman et al. [Biochemical Pharmacology, Vol. 20, 1637(1971)]. That is, using hippuryl-L-histidyl-L-leucine(HHL) as the substrate, the ACE inhibitory activity was determined in terms of percent inhibition on the amount of hippuric acid produced by ACE when the present compound was added. […] In this experiment, a potassium phosphate buffer solution containing dimethyl sulfoxide at a concentration equal to that of the test solution was used as a control. After incubating the solution at 37° C. for one hour, 150 μl of 1N hydrochloric acid was added to the solution to terminate the reaction. After 1 ml of ethyl acetate was added, the solution was centrifuged at 3000 r.p.m. for 10 minutes. A 0.5 ml aliquot was separated from the ethyl acetate layer and dried at a temperature below 50° C. under nitrogen gas streams. The residue was mixed with 5 ml of 1M aqueous sodium chloride and the mixture was subjected to colorimetry at a wavelength of 228 nm.

Turning to `CCOC(=O)[C@H](CCc1ccc(OC)c(OC)c1)N[C@@H](C)C(=O)N(CC(=O)O)C1Cc2ccccc2C1.Cl` [Example 15, N-[1-(S)-ethoxycarbonyl-3-(3,4-dimethoxyphenyl)propyl]-L-alanyl-N-(indan-2-yl)glycine hydrochloride], in assay [1], the “Percent Inhibition against Hypertensive Reaction by Angiotensin I, After 20 min.” value (shortened to “Percent Inhibition … After 20 min.”) is 84%; the “Percent Inhibition against Hypertensive Reaction by Angiotensin I, After 60 min.” value (“Percent Inhibition … After 60 min.” for short) is on record as 80%; the “Percent Inhibition against Hypertensive Reaction by Angiotensin I, After 120 min.” value (“Percent Inhibition … After 120 min.” below) worked out at 65%.

Regarding `CCCCOC(=O)C(CCc1ccccc1)N[C@@H](C)C(=O)N(CC(=O)O)C1Cc2ccccc2C1` (stereo partly drawn) [Example 8, N-(1-butoxycarbonyl-3-phenylpropyl)-L-alanyl-N-(indan-2-yl)glycine hydrochloride], in assay [2], the inhibition at 1 µM is 69% and the inhibition at 10 µM came to 99%.

As for `CC(C)OC(=O)C(CCc1ccccc1)N[C@@H](C)C(=O)N(CC(=O)O)C1Cc2ccccc2C1.Cl` (stereo partly drawn) [Example 9, N-(1-isopropoxycarbonyl-3-phenylpropyl)-L-alanyl-N-(indan-2-yl)glycine hydrochloride], in assay [2], the inhibition at 1 µM came out at 72% and the inhibition at 10 µM stood at 95%. In addition, in assay [1], the “Percent Inhibition … After 20 min.” value came to 88%; the “Percent Inhibition … After 60 min.” value turned out to be 71%; the “Percent Inhibition … After 120 min.” value is 51%.

On to `CCCOC(=O)C(CCc1ccccc1)N[C@@H](C)C(=O)N(CC(=O)O)C1Cc2ccccc2C1.Cl` (stereo partly drawn) [Example 7, N-(1-propoxycarbonyl-3-phenylpropyl)-L-alanyl-N-(indan-2-yl)glycine hydrochloride], for which, in assay [2], the inhibition at 1 µM was 91% and the inhibition at 10 µM was determined as 97%. Further, in assay [1], the “Percent Inhibition … After 20 min.” value stood at 84%; the “Percent Inhibition … After 60 min.” value amounted to 91%; the “Percent Inhibition … After 120 min.” value is on record as 96%.

As for `C[C@H](N[C@@H](CCc1ccccc1)C(=O)O)C(=O)N(CC(=O)O)C1Cc2ccccc2C1` [Example 19, N-(1-(S)-carboxyl-3-phenylpropyl)-L-alanyl-N-(indan-2-yl)glycine], in assay [2], the inhibition at 1 µM was 95% and the inhibition at 10 µM was determined as 98%.

As for `CCOC(=O)C(CCc1ccccc1)N[C@@H](C)C(=O)N(CC(=O)O)C1Cc2ccccc2C1.Cl` (stereo partly drawn) [Example 1, N-(1-ethoxycarbonyl-3-phenylpropyl)-L-alanyl-N-(indan-2-yl)glycine hydrochloride], in assay [2], the inhibition at 1 µM came out at 87% and the inhibition at 10 µM came to 97%. Besides, in assay [1], the “Percent Inhibition … After 20 min.” value is reported as 93%; the “Percent Inhibition … After 60 min.” value stood at 88%; the “Percent Inhibition … After 120 min.” value turned out to be 77%.
